Read-outs that look alike come from different tables or passages of the source.
How the values were obtained:
SF-295 [1] = experiment: NCI-60 cytotoxicity screen; format: cell-based
MCF7 = experiment: NCI-60 cytotoxicity screen; format: cell-based
MOLT-4 = experiment: NCI-60 cytotoxicity screen; format: cell-based
SF-268 = experiment: NCI-60 cytotoxicity screen; format: cell-based
SNB-75 [2] = experiment: JFCR-39 cytotoxicity screen; format: cell-based
ST-4 = experiment: JFCR-39 cytotoxicity screen; format: cell-based
[3] = test system: normal cardiac myoblast H9c2 cells; conditions: rat
Method: Briefly, 96 well microtiter plates were inoculated with the specified human cancer cell lines in RPMI 1640 medium containing 5% fetal bovine serum and 2 mM L-glutamine at the specified plating densities. The microtiter plates were incubated at 37°C, 5% CO2, and 100% relative humidity for 24 h. The test compounds were solubilized in DMSO at 400-fold the desired final maximum test concentration, diluted with complete medium containing gentamicin and added to the wells of the microtiter plates to achieve the final desired compound concentration, then incubated for an additional 48 h at the same incubation conditions. The media were removed, the cells were fixed then stained with sulforhodamine B and the unbound dye was removed by washing with acetic acid. The bound dye was resolubilized with trizma base and the absorbance at 515 nm was measured. Cells were stained with the WST-1 cell proliferation reagent instead of sulforhodamine B in some experiments and absorbance were measured at 440 nm. The three dose response parameters GI50, TGI and LC50 were calculated for each experimental compound as follows [48]: For values where Ti ≥ Tz the formula is [ (Ti-Tz) / (C-Tz)] x 100 For values where Ti < Tz the formula is [ (Ti-Tz) / Tz] x 100 Where Ti is the absorbance of the solubilized Sulforhodamine B (SRB) (representing the number of cells) of the five different concentrations of the compound used in the test, Tz is the absorbance of the SRB at time zero, and C is the absorbance of the SRB of the control growth.

MKN74 = experiment: JFCR-39 cytotoxicity screen; format: cell-based
MDA-MB-435 = experiment: NCI-60 cytotoxicity screen; format: cell-based
MALME-3M = experiment: NCI-60 cytotoxicity screen; format: cell-based
MKN7 = experiment: JFCR-39 cytotoxicity screen; format: cell-based
OVCAR-8 = experiment: NCI-60 cytotoxicity screen; format: cell-based
HCT-15 = experiment: JFCR-39 cytotoxicity screen; format: cell-based
NCI-H23 = experiment: NCI-60 cytotoxicity screen; format: cell-based
M14 = experiment: NCI-60 cytotoxicity screen; format: cell-based
MDA-MB-468 = experiment: NCI-60 cytotoxicity screen; conditions: Homo sapiens, MDA-MB-468, read-out: mean log10 of the GI50 values (converted)
U251 = experiment: NCI-60 cytotoxicity screen; format: cell-based
HCT-116 = experiment: JFCR-39 cytotoxicity screen; format: cell-based
K-562 = experiment: NCI-60 cytotoxicity screen; format: cell-based
SF-539 = experiment: JFCR-39 cytotoxicity screen; format: cell-based
HL-60(TB) = experiment: NCI-60 cytotoxicity screen; format: cell-based
SR = experiment: NCI-60 cytotoxicity screen; format: cell-based; conditions: Homo sapiens, Fig 7, read-out: mean log10 of the GI50 values (converted)
SNB-75 [4] = experiment: NCI-60 cytotoxicity screen; format: cell-based
PC-3 [5] = experiment: JFCR-39 cytotoxicity screen; format: cell-based
SF-295 [6] = experiment: JFCR-39 cytotoxicity screen; format: cell-based
NCI-H226 = experiment: NCI-60 cytotoxicity screen; format: cell-based
EKVX = experiment: NCI-60 cytotoxicity screen; format: cell-based
MCF-7 = experiment: JFCR-39 cytotoxicity screen; format: cell-based
HBC-5 = experiment: JFCR-39 cytotoxicity screen; format: cell-based
786-0 = experiment: NCI-60 cytotoxicity screen; format: cell-based
PC-3 [7] = experiment: NCI-60 cytotoxicity screen; format: cell-based
SNB-78 = experiment: JFCR-39 cytotoxicity screen; format: cell-based
[8] = Homo sapiens, Fig 7, read-out: mean log10 of the GI50 values (converted)
[9] = Homo sapiens, five-dose, read-out: GI50
[10] = Homo sapiens, five-dose, read-out: LC50 (the source's name)
[11] = Homo sapiens, read-out: LC50 (the source's name)

## O=C1c2ccccc2C(=O)c2c1ccc1nsnc21 [NSC745885, anthra[1,2-c][1,2,5]thiadiazole-6,11-dione]
SF-295 [1]; [8]
  GI50: 2400 nM
SF-295 [1]; [9]
  GI50: 1900 nM
SF-295 [1]; [10]
  CC50: 8.56 µM
SF-295 [1]; five-dose
  TGI: 4.04 µM
MCF7; [8]
  GI50: 1380 nM
MCF7; [9]
  GI50: 1530 nM
MCF7; [10]
  CC50: 7.29 µM
MCF7; five-dose
  TGI: 3.34 µM
MOLT-4; [8]
  GI50: 891 nM
MOLT-4; [9]
  GI50: 490 nM
MOLT-4; [10]
  CC50: 4.71 µM
MOLT-4; five-dose
  TGI: 1.84 µM
SF-268; [8]
  GI50: 2750 nM
SF-268; [9]
  GI50: 2170 nM
SF-268; [10]
  CC50: 27.7 µM
SF-268; five-dose
  TGI: 5.77 µM
SNB-75 [2]
  TGI: 3.9 µM
SNB-75 [2]; Homo sapiens
  GI50: 2200 nM
SNB-75 [2]; [11]
  CC50: 7 µM
ST-4
  TGI: 4.0 µM
ST-4; Homo sapiens
  GI50: 2000 nM
ST-4; [11]
  CC50: 8 µM
[3]
  cytotoxicity towards normal cardiac myoblast H9c2 cells: significantly less cytotoxic effects on H9c2 cells at higher doses than doxorubicin
MKN74
  TGI: 4.7 µM
MKN74; Homo sapiens, MKN-74
  GI50: 1800 nM
MKN74; Homo sapiens, MKN-74, read-out: LC50 (the source's name)
  CC50: > 100 µM
MDA-MB-435; [8]
  GI50: 1910 nM
MDA-MB-435; [9]
  GI50: 1910 nM
MDA-MB-435; [10]
  CC50: 5.76 µM
MDA-MB-435; five-dose
  TGI: 3.31 µM
MALME-3M; [8]
  GI50: 2000 nM
MALME-3M; [9]
  GI50: 1660 nM
MALME-3M; [10]
  CC50: 5.96 µM
MALME-3M; five-dose
  TGI: 3.15 µM
MKN7
  TGI: 3.7 µM
MKN7; Homo sapiens, MKN-7
  GI50: 1100 nM
MKN7; Homo sapiens, MKN-7, read-out: LC50 (the source's name)
  CC50: 17 µM
OVCAR-8; [8]
  GI50: 1200 nM
OVCAR-8; [9]
  GI50: 1660 nM
OVCAR-8; [10]
  CC50: 59.8 µM
OVCAR-8; five-dose
  TGI: 4.68 µM
HCT-15
  TGI: 3.4 µM
HCT-15; Homo sapiens
  GI50: 1800 nM
HCT-15; [11]
  CC50: 6.3 µM
NCI-H23; [8]
  GI50: 1070 nM
NCI-H23; [9]
  GI50: 1440 nM
NCI-H23; [10]
  CC50: > 100 µM
NCI-H23; five-dose
  TGI: 6.04 µM
M14; [8]
  GI50: 2290 nM
M14; [9]
  GI50: 2150 nM
M14; [10]
  CC50: > 100 µM
M14; five-dose
  TGI: 4.85 µM
MDA-MB-468
  GI50: 1820 nM
U251; Homo sapiens, U-251, Fig 7, read-out: mean log10 of the GI50 values (converted)
  GI50: 2510 nM
U251; Homo sapiens, U-251, five-dose, read-out: GI50
  GI50: 1610 nM
U251; Homo sapiens, U-251, five-dose, read-out: LC50 (the source's name)
  CC50: 5.44 µM
U251; five-dose
  TGI: 2.96 µM
HCT-116
  TGI: 3.0 µM
HCT-116; Homo sapiens
  GI50: 1600 nM
HCT-116; [11]
  CC50: 5.8 µM
K-562; Homo sapiens, K562, Fig 7, read-out: mean log10 of the GI50 values (converted)
  GI50: 2510 nM
K-562; Homo sapiens, K562, five-dose, read-out: GI50
  GI50: 1920 nM
K-562; Homo sapiens, K562, five-dose, read-out: LC50 (the source's name)
  CC50: 41.2 µM
K-562; five-dose
  TGI: 15.9 µM
SF-539
  TGI: 3.6 µM
SF-539; Homo sapiens
  GI50: 1900 nM
SF-539; [11]
  CC50: 6.6 µM
HL-60(TB); [8]
  GI50: 589 nM
HL-60(TB); [9]
  GI50: 160 nM
HL-60(TB); [10]
  CC50: 990 nM
HL-60(TB); five-dose
  TGI: 0.39 µM
SR
  GI50: 6.92 µM
SNB-75 [4]; [8]
  GI50: 1700 nM
SNB-75 [4]; [9]
  GI50: 2030 nM
SNB-75 [4]; [10]
  CC50: 18.6 µM
SNB-75 [4]; five-dose
  TGI: 5.20 µM
PC-3 [5]
  TGI: 2.8 µM
PC-3 [5]; Homo sapiens
  GI50: 1300 nM
PC-3 [5]; [11]
  CC50: 6 µM
SF-295 [6]
  TGI: 3.3 µM
SF-295 [6]; Homo sapiens
  GI50: 1800 nM
SF-295 [6]; [11]
  CC50: 5.9 µM
NCI-H226; [8]
  GI50: 8.32 µM
NCI-H226; Homo sapiens, five-dose
  LC50 (concentration killing 50% of cells): 63.7 µM
NCI-H226; [9]
  GI50: 4.48 µM
NCI-H226; five-dose
  TGI: 21.6 µM
EKVX; [8]
  GI50: 1860 nM
EKVX; [9]
  GI50: 1550 nM
EKVX; [10]
  CC50: 7.66 µM
EKVX; five-dose
  TGI: 3.45 µM
MCF-7
  TGI: 3.9 µM
MCF-7; Homo sapiens, MCF7
  GI50: 1900 nM
MCF-7; Homo sapiens, MCF7, read-out: LC50 (the source's name)
  CC50: 8.1 µM
HBC-5
  TGI: 3.5 µM
HBC-5; Homo sapiens, HBC5
  GI50: 1900 nM
HBC-5; Homo sapiens, HBC5, read-out: LC50 (the source's name)
  CC50: 6.2 µM
786-0; 786–0, five-dose
  TGI: 19.3 µM
786-0; Homo sapiens, 786-0, Fig 7, read-out: mean log10 of the GI50 values (converted)
  GI50: 4.9 µM
786-0; Homo sapiens, 786–0, five-dose, read-out: GI50
  GI50: 6.17 µM
786-0; Homo sapiens, 786–0, five-dose, read-out: LC50 (the source's name)
  CC50: 50.4 µM
PC-3 [7]; [8]
  GI50: 3.16 µM
PC-3 [7]; [9]
  GI50: 3.23 µM
PC-3 [7]; [10]
  CC50: > 100 µM
PC-3 [7]; five-dose
  TGI: >100 µM
SNB-78
  TGI: 3.4 µM
SNB-78; Homo sapiens
  GI50: 1700 nM
SNB-78; [11]
  CC50: 6.9 µM

From publication PMC4839570, “Novel Anthra[1,2-c][1,2,5]Thiadiazole-6,11-Diones as Promising Anticancer Lead Compounds: Biological Evaluation, Characterization & Molecular Targets Determination” (PLoS ONE, 2016)
